{"source": "patent US7879792B2", "about": "“Synthetic peptide inhibitors of thrombin and thrombin activation of protease activated receptors 1 and 4” (The Regents of the University of Michigan, priority 2005, dated 2011)", "tested_on": "C57BL6 mice", "test": "Rose Bengal model for arterial thrombosis, time to carotid artery occlusion", "assay_type": "in vivo, mouse", "settings": "0.2 to 3.22 mg/kg IP", "text": "C57BL6 mice 6 to 16 weeks of age were anesthetized by intraperitoneal injection with sodium pentobarbital and placed in the supine position on a dissecting microscope (Nikon SMZ-2T, Mager Scientific, Inc., Dexter, Mich.). A midline surgical incision was made to expose the right common carotid artery and a Doppler flow probe (Model 0.5 VB, Transonic Systems, Ithaca, N.Y.) is placed under the vessel. The probe was connected to a flowmeter (Transonic Model T106) and was interpreted with a computerized data acquisition program (Windaq, DATAQ Instruments, Arkron, Ohio). Rose Bengal (4,5,6,7-tetrachloro-3′,6-dihydroxy-2,4,5,7-tetraiodospiro(isobenzofuran-1(3H), 9 [9H] xanthan)-3-1 dipotassium salt) (Fisher Scientific, Fair Lawn, N.J.) at 50 mg/kg in 0.9% saline) was then injected into the tail vein in a 0.12 ml volume (Eitzman et al., Blood 95, 577 (2000)). After injection into the tail vein, a green laser light (Melles Griot, Carlsbad, Calif.) at a wavelength of 540 nm was applied 6 cm from the carotid artery. Flow is monitored continuously from the onset of injury. The time to occlusion was determined only after the vessel remained closed with a cessation of blood flow for 20 min. […] These investigations indicate that these compounds are able to prevent thrombosis in the whole animal in vivo.", "note": "“Also recorded” adds a separate entry of the source. Where a SMILES comes first, the peptide text is derived from it.", "data": [{"smiles": "Cc1ccc(C[C@H](NC(=O)[C@@H](C)NC(=O)[C@@H]2CCCN2C(=O)[C@@H]2C[C@@H]3CCCC[C@@H]3N2C(=O)[C@H](N)CCCNC(=N)N)C(N)=O)cc1", "note": "[rOicPaF(p-Me), D-Arg-Oic-Pro-D-Ala-Phe(p-Me)] (HELM PEPTIDE1{[dR].[O=C([C@@H]1C[C@@H]2CCCC[C@@H]2N1[*:1])[*:2]].P.[dA].[Cc1ccc(C[C@H](N[*:1])C(=O)[*:2])cc1].[am]}$$$$V2.0)", "values": [{"measurement": "time to occlusion of the mouse right carotid artery", "result": "significant prolongation; also recorded: progressively prolonged"}]}]}
